Assay results taken from PMC12133000 (PLOS One, 2025).
Where “and” joins values, the source holds several entries; their conditions need not be identical. Equal entries are not always repeated. Where two headings read alike, the source gives them in different places.

Test: Pharmacokinetics of rivaroxaban in rats after avitinib or gefitinib pretreatment
Assay type: in vivo, Sprague–Dawley (SD) rats
Conditions: for MRT last / AUC(0-inf) / Tmax / AUC(0-t) / CL/F / Cmax / half-life / MRT inf / Vd/F: male, Sprague-Dawley, rat, plasma, po, 10 mg/kg; for AUC(0-t): read-out: AUC(0–t); for CL/F: read-out: CLz/F (converted); for Cmax: read-out: Cmax; for half-life: read-out: t1/2 (converted); for MRT inf: read-out: MRT(0–∞); for Vd/F: read-out: Vz/F
Procedure: Eighteen male Sprague–Dawley (SD) rats weighing 300 ± 20 g were provided by the Experimental Animal Center of Wenzhou Medical University (Wenzhou, China) and kept under controlled conditions at a temperature of 23 ± 2 °C, relative humidity of 50 ± 10%, and 12 h light–dark cycle. Eighteen male SD rats were randomly assigned to three groups: avitinib, gefitinib, and control, with six rats per group. Prior to the experiment, the rats were not administered any other medications and fasted for 12 h. The experimental procedures and protocols adhered to Animal Ethics standards and were approved by the Animal Care and Use Committee of Wenzhou Medical University (approval no. wydw2019–650). All rats were anesthetized with sodium pentobarbital (40mg/kg, i.p) to relieve pain. The rats were killed through cervical dislocation.
Prior to the experiment in vivo, the six rats in the avitinib group were administered 30 mg/kg avitinib and 0.5% sodium carboxymethyl cellulose (CMC-Na) solution by gavage daily for 7 d. […] The supernatant was collected and stored at −80 °C. After thawing, 50 μL of plasma was extracted; 100 μL of acetonitrile solution containing midazolam (200 ng/mL) was then added to induce protein precipitation. After vortexing for 30 s and centrifuging at 13,000 rpm for 5 min, the […].
All assays were performed in triplicate, and the results are expressed as mean ± standard deviation. DAS software v. […] SPSS v. 25.0 (IBM, NY, USA) was used for data processing. Student’s t-tests were used to detect differences between groups. Differences with p < 0.05 were considered statistically significant.

[1] = rats, rivaroxaban 10 mg/kg oral, avitinib group (30 mg/kg pretreatment)
[2] = rats, rivaroxaban 10 mg/kg oral, control group (CMC-Na only)
[3] = rats, rivaroxaban 10 mg/kg oral, gefitinib group (25 mg/kg pretreatment)

O=C(NC[C@H]1CN(c2ccc(N3CCOCC3=O)cc2)C(=O)O1)c1ccc(Cl)s1 [rivaroxaban, Rivaroxaban]
MRT last (gefitinib group, single rats No1-No6, read-out: MRT(0-t)): 5.59 h
AUC(0-inf) [1]: 9350 ± 3840 ng·h/mL
Tmax [1]: 1.33 ± 0.82 h
AUC(0-t) [1]: 9000 ± 3740 ng·h/mL
CL/F [1]: 19.7 mL/min/kg
Cmax [1]: 1810 ± 619 ng/mL
MRT last (rats, rivaroxaban 10 mg/kg oral, avitinib group (30 mg/kg pretreatment), read-out: MRT(0–t)): 3.79 ± 0.66 h
half-life [1]: 2.2 ± 1.07 h
AUC(0-inf) [2]: 2280 ± 870 ng·h/mL
Tmax [2]: 0.83 ± 0.26 h
AUC(0-t) [2]: 2250 ± 853 ng·h/mL
CL/F [2]: 80.8 mL/min/kg
Cmax [2]: 441 ± 81.8 ng/mL
MRT last (rats, rivaroxaban 10 mg/kg oral, control group (CMC-Na only), read-out: MRT(0–t)): 3.79 ± 1.08 h
MRT inf [2]: 3.95 ± 1.05 h
Vd/F [2]: 11.5 ± 2.63 L/kg
half-life [2]: 1.61 ± 0.61 h
AUC(0-inf) [3]: 76000 ± 20800 ng·h/mL
Tmax [3]: 3.17 ± 0.98 h
AUC(0-t) [3]: 58000 ± 5890 ng·h/mL
CL/F [3]: 2.33 mL/min/kg
Cmax [3]: 8310 ± 2100 ng/mL
MRT last (rats, rivaroxaban 10 mg/kg oral, gefitinib group (25 mg/kg pretreatment), read-out: MRT(0–t)): 4.9 ± 0.47 h
MRT inf [3]: 8.23 ± 3.61 h
Vd/F [3]: 0.87 ± 0.28 L/kg
half-life [3]: 4.81 ± 2.7 h
MRT(0–∞) [1]: 4.26 ± 1.12 h
rivaroxaban (吉非替尼 (gefitinib) group, individual rats 7-12, time 0.0833): 778.8 ng/mL and 334.9 ng/mL and 724.5 ng/mL and 847.1 ng/mL and 256.3 ng/mL and 816.3 ng/mL
rivaroxaban (吉非替尼 (gefitinib) group, individual rats 7-12, time 0.25): 1686.1 ng/mL and 1476.8 ng/mL and 2176.1 ng/mL and 1686 ng/mL and 1747.2 ng/mL
rivaroxaban (吉非替尼 (gefitinib) group, individual rats 7-12, time 0.5): 3330.8 ng/mL and 4408.9 ng/mL and 4082.8 ng/mL and 3161.2 ng/mL and 3240.3 ng/mL
rivaroxaban (吉非替尼 (gefitinib) group, individual rats 7-12, time 1): 5012 ng/mL and 6707.2 ng/mL and 5280.7 ng/mL and 6110.2 ng/mL and 4481.1 ng/mL
rivaroxaban (吉非替尼 (gefitinib) group, individual rats 7-12, time 2): 8309.8 ng/mL and 7015.4 ng/mL and 10641.7 ng/mL and 6946 ng/mL
rivaroxaban (吉非替尼 (gefitinib) group, individual rats 7-12, time 3): 6431.9 ng/mL and 10386.8 ng/mL and 7734.1 ng/mL
rivaroxaban (吉非替尼 (gefitinib) group, individual rats 7-12, time 4): 6136.6 ng/mL and 9214.1 ng/mL and 6949.9 ng/mL
rivaroxaban (吉非替尼 (gefitinib) group, individual rats 7-12, time 6): 6115 ng/mL and 5681 ng/mL and 5825.4 ng/mL
rivaroxaban (吉非替尼 (gefitinib) group, individual rats 7-12, time 8): 3374.5 ng/mL and 2542.2 ng/mL and 4779.1 ng/mL
rivaroxaban (吉非替尼 (gefitinib) group, individual rats 7-12, time 12): 732.7 ng/mL and 1716.7 ng/mL and 1654.8 ng/mL and 917.3 ng/mL
rivaroxaban (对照 (control, rivaroxaban alone) group, individual rats 13-18, time 0.0833): 278.3 ng/mL and 142.7 ng/mL and 136.5 ng/mL and 68.9 ng/mL and 158.6 ng/mL and 163.2 ng/mL
rivaroxaban (对照 (control, rivaroxaban alone) group, individual rats 13-18, time 0.25): 264.9 ng/mL and 294.2 ng/mL and 171.8 ng/mL and 256.9 ng/mL and 261.1 ng/mL
rivaroxaban (对照 (control, rivaroxaban alone) group, individual rats 13-18, time 0.5): 465.3 ng/mL and 337.5 ng/mL and 461.6 ng/mL and 378.7 ng/mL and 305.8 ng/mL
rivaroxaban (对照 (control, rivaroxaban alone) group, individual rats 13-18, time 2): 261.4 ng/ml (2×) and 475.9 ng/ml and 181.6 ng/ml and 351.5 ng/ml and 418.6 ng/ml and 334.6 ng/ml
rivaroxaban (对照 (control, rivaroxaban alone) group, individual rats 13-18, time 3): 240.8 ng/mL and 431.8 ng/mL and 207.2 ng/mL and 349.6 ng/mL
rivaroxaban (艾维替尼 (avitinib) group, individual rats 1-6, time 0.0833): 380.2 ng/mL and 320.6 ng/mL and 287.7 ng/mL and 191 ng/mL and 288.9 ng/mL and 237.4 ng/mL
rivaroxaban (艾维替尼 (avitinib) group, individual rats 1-6, time 0.25): 386.7 ng/ml (2×) and 727.9 ng/ml and 581.8 ng/ml and 614.9 ng/ml and 286.3 ng/ml and 927.5 ng/ml
rivaroxaban (艾维替尼 (avitinib) group, individual rats 1-6, time 0.5): 990.9 ng/ml (2×) and 1066.3 ng/ml and 1018.5 ng/ml and 978.4 ng/ml and 583.2 ng/ml and 1904.4 ng/ml
rivaroxaban (艾维替尼 (avitinib) group, individual rats 1-6, time 1): 1423.2 ng/ml (2×) and 1593.7 ng/ml and 2386.3 ng/ml and 1162.7 ng/ml and 1561.2 ng/ml and 2231.2 ng/ml
